Measurements published in ChEMBL document CHEMBL1201862, “PubChem BioAssay data set” (2004).
The source made the active and inactive calls.

How the values were obtained:
Vero = assay: cells; format: functional; conditions: Chlorocebus sabaeus
[1] = target: T1, Short transient receptor potential channel 4 (Mus musculus, UniProt Q9QUQ5); assay: calcium entry via TRPC4 opening agents – cell-based, HEK293 TRPC4/mu-opioid, Fluo-4 calcium, dose response (AID 434937); format: functional
T1 sequence (Q9QUQ5 whole entry): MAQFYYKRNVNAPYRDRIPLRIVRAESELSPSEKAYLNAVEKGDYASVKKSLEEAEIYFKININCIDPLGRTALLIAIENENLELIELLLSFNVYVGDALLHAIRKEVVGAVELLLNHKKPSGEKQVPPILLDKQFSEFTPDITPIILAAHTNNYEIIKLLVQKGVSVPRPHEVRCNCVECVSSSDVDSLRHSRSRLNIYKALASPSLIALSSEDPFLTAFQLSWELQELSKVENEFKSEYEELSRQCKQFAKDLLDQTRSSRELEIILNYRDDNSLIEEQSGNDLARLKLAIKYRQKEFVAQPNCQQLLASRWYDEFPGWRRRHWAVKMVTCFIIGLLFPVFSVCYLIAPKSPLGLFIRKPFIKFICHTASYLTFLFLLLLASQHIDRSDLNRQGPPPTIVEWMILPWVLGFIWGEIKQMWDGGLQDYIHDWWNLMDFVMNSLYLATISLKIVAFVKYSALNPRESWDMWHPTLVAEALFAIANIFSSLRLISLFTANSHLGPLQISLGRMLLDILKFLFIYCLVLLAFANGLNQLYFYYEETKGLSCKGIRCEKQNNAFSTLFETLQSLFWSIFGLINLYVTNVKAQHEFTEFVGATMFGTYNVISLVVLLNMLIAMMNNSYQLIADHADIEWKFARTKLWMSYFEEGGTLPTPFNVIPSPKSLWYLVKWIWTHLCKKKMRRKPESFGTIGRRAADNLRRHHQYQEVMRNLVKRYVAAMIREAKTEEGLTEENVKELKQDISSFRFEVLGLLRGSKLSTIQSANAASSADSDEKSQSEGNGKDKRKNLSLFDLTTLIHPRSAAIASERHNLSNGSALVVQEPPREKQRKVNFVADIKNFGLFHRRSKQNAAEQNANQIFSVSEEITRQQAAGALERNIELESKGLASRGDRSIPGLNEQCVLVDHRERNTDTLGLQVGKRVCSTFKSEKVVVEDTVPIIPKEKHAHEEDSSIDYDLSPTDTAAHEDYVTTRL

Mu-type opioid receptor = Mu-type opioid receptor (Homo sapiens, UniProt P35372); assay: (§1) Counterscreen for agonists of heterodimerization of the mu 1 (OPRM1) and delta 1 (OPRD1) opioid receptors: Luminescence-based cell-based high throughput dose response assay to identify agonists of OPRM1 homodimerization.; format: functional
[2] = target: 5-hydroxytryptamine receptor 5A (Homo sapiens, UniProt P47898); assay: Counterscreen for agonists of OPRM1-OPRD1 heterodimerization: luminescence-based cell-based high throughput dose response assay to identify agonists of 5-hydroxytryptamine (serotonin) 5A receptor (HTR5A). [Related pubchem assays (depositor defined):AID504326, AID504355, AID504692, AID504904, AID504905]; format: functional
[3] = target: Delta-type opioid receptor (Homo sapiens, UniProt P41143); assay: as §1, with “of OPRD1” for “of OPRM1”, “homodimerization. [Related pubchem assays (depositor defined):AID504326, AID504355, AID504692, AID504904, AID504905]” for “homodimerization.”; format: functional
[4] = target: ATP-dependent molecular chaperone HSP82 (Candida albicans (strain WO-1) (Yeast), UniProt C4YTQ8); assay: steroid-induced GRE reporter decrease in yeast – S. cerevisiae, luminescence, Hsp90 inhibitor project, dose response (AID 2400); format: functional, cell-based;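 also: beta-galactosidase luminescence from glucocorticoid response element reporter as proxy for Hsp90 function; inhibitor potency where signal loss means Hsp90 inhibition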
[5] = NIH-3T3 fibroblast cytotoxicity, dose response, cytotoxicity control, cell-based, fluorescence, Alamar Blue, secondary assay (AID 2327); format: functional;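 also: NIH-3T3 mouse fibroblasts cultured with fluconazole at 8 µg/mL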
[6] = fluconazole-exposed Candida albicans growth modulators – fluorescence, retest, confirmation (AID 2467); format: functional, cell-based
[7] = target: T2, Serine/threonine-protein phosphatase (Candida dubliniensis (strain CD36 / CBS 7987 / NCPF 3949 / NRRLY-17841) (Yeast), UniProt B9W6M3); assay: blockers of CaCl2-induced CDRE-lacZ signaling – S. cerevisiae, luminescence, secondary, dose response (AID 2388); format: functional, cell-based;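 also: yeast reporter cells carrying a calcineurin-responsive lacZ construct stimulated with calcium chloride; luminescent beta-galactosidase reporter signal in whole cells rather than isolated phosphatase activity; potency for inhibition where a drop in reporter signal means calcineurin blockade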
T2 sequence (B9W6M3 whole entry): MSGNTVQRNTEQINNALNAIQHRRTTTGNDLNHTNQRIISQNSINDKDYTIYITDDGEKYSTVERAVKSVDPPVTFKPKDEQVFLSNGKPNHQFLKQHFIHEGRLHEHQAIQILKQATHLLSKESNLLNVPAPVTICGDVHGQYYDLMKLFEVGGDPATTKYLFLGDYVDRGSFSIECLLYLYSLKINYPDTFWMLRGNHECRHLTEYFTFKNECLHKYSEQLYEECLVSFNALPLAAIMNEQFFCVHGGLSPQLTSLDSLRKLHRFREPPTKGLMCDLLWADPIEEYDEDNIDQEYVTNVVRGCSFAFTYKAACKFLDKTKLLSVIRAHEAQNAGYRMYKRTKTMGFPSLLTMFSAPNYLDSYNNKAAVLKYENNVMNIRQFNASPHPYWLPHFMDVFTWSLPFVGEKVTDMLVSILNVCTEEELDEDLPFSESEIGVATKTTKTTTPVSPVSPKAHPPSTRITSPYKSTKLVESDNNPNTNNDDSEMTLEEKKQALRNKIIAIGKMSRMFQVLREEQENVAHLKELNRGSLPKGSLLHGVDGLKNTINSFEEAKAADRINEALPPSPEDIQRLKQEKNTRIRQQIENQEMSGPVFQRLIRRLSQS

[8] = HIV-1 AD8 envelope cell-cell fusion blockers – cherry-pick, dose response (AID 652062); format: functional, cell-based;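 also: luciferase signal from cell-cell fusion driven by HIV-1 clade B AD8 Env; potency is for inhibitors of fusion seen as a drop in luminescence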
[9] = off-target signal loss in HeLa-CEM21 co-culture – HeLa F-luc CTL cells, cherry-picked, counter-screen for HIV-1 Env fusion inhibitor project, dose response (AID 652040); format: functional, cell-based;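 also: potency for signal decrease marking cytotoxic or nonspecific inhibition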
[10] = target: T3, Carboxy-terminal domain RNA polymerase II polypeptide A small phosphatase 1 (Homo sapiens, UniProt Q9GZU7); assay: CTDSP1 inhibitors, concentration-response, biochemical, absorbance readout, ultra-high-throughput screen actives (AID 540297); format: functional
T3 sequence (Q9GZU7 whole entry): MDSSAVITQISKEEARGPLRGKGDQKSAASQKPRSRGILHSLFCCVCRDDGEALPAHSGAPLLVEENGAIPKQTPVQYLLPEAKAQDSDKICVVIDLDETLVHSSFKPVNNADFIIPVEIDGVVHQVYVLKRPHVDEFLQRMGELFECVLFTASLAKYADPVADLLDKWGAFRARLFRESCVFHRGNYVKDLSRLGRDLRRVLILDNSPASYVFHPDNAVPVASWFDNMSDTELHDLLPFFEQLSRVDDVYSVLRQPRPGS

[11] = blockers of HIV-1 envelope-mediated cell-cell fusion – cherry-pick, dose response (AID 652057); format: functional, cell-based

Chain of Delta-type opioid receptor (P41143 whole entry): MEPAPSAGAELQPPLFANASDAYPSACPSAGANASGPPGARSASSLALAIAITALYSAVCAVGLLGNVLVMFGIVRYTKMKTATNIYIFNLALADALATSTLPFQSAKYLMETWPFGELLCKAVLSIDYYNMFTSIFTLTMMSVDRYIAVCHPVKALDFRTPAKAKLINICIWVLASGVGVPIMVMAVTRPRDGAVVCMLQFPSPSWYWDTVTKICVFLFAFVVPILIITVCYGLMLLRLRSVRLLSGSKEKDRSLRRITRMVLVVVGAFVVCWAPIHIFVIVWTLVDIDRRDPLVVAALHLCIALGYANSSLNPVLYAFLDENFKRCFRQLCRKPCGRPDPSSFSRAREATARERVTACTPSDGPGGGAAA
Chain of Mu-type opioid receptor (P35372 whole entry): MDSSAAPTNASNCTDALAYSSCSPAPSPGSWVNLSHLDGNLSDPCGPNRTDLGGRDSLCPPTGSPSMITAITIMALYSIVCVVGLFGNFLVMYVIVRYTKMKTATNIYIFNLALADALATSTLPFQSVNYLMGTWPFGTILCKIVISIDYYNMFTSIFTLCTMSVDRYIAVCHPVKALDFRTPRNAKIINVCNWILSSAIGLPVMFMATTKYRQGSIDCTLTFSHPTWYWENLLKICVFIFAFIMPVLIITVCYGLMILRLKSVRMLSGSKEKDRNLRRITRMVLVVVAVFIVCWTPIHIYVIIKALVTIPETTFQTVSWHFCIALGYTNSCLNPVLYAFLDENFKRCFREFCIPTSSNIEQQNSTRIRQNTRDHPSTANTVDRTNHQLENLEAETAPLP
Chain of 5-hydroxytryptamine receptor 5A (P47898 whole entry): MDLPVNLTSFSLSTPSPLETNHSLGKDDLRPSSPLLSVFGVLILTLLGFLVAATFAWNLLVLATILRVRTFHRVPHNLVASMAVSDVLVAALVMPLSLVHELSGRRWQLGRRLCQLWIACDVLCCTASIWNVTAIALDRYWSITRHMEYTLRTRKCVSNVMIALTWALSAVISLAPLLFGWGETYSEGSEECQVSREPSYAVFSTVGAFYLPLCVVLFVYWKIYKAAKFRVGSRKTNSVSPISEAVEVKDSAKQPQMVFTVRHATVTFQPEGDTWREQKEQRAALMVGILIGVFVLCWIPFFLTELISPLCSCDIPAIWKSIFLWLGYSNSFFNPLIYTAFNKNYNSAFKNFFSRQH
Chain of ATP-dependent molecular chaperone HSP82 (C4YTQ8 whole entry): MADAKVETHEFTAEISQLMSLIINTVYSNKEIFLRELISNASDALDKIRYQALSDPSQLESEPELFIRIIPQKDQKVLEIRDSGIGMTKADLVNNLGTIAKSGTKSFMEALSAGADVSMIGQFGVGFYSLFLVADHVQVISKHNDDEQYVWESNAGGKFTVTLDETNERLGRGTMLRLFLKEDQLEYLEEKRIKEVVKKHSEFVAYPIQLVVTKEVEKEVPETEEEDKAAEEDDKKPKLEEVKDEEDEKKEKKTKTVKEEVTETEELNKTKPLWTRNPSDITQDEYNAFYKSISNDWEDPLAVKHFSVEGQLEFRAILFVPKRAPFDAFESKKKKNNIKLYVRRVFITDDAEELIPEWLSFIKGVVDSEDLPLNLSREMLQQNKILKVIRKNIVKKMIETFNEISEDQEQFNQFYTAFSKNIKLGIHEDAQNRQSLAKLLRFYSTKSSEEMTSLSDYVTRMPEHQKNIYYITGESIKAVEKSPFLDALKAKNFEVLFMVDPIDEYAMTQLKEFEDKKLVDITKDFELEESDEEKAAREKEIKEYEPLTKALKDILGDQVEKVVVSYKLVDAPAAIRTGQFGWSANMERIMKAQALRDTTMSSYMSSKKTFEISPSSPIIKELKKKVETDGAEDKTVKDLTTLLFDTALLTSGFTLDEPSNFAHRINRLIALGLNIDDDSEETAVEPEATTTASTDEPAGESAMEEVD

Structure (SMILES): COc1cccc(/C=C2/SC(=S)N(CCC(=O)N3CCOCC3)C2=O)c1
- CC50 (Vero): 20.1 µM (active)

Structure (SMILES): Cc1ccccc1[N+]1=C2SCCN2C(O)(c2ccccc2)C1 (configuration not stated)
- EC50 [1]: 335 nM (active)
- EC50 (Mu-type opioid receptor): 18.7 µM (inactive)
- EC50 [2]: > 92.5 µM (inactive)
- EC50 [3]: > 92.5 µM (inactive)

Structure (SMILES): O=c1c2ccc(Cl)cc2[nH]c(=S)n1Cc1cccnc1
- EC50 (Mu-type opioid receptor): 65.6 µM (inactive)
- EC50 [2]: > 92.5 µM (inactive)
- EC50 [3]: 43.2 µM (inactive)

Structure (SMILES): CCNc1nc(NC(C)C)nc(NC(C)(C)C)n1
- EC50 [4]: > 160 µM (inactive)
- EC50 [5]: > 150 µM (inconclusive)
- EC50 [6]: 110 nM (active)
- EC50 [7]: > 180 µM (inactive)

Structure (SMILES): CSc1cccc(N2CC(C(=O)Nc3cccc(S(=O)(=O)N4CCCC4)c3)CC2=O)c1 (configuration not stated)
- AC50 [8]: 11.7 µM (active)
- AC50 [9]: > 70 µM (inactive)
- IC50 [10]: 6.81 µM (active)
- AC50 [11]: 17.8 µM (active)

Structure (SMILES): CC(=O)Nc1ccc(S(=O)(=O)NCCC(=O)OCC(=O)N2CCN(C(=O)c3ccco3)CC2)cc1
- IC50 [10]: 10.3 µM (active)
